The results in this text go back to patent publication US6395906B1, “Intermediates to pesticidal 1-arylpyrazoles” (Rhone-Poulenc Inc., priority 1995, dated 2002).

Holding throughout (format): in vivo
Test [1] has as its system black cutworm (Agrotis ipsilon). Kind of test: Black cutworm systemic test (BCW-Sys). The settings on record: soil drench 10.0 ppm, corn seedling clipped ten days after treatment; mortality 4 days after infestation. From the text: (§1) For cotton aphid systemic tests and black cutwork—systemic tests, the water-acetone-DMF-emulsifier solution was adjusted for a treatment rate of 10.0 ppm soil concentration.
Black cutworm—systemic test (BCW-Sys): Corn seeds were placed on top of the soil surface in pots containing moist soil. The test compound solution was applied as a drench to the top of the soil and seeds for a treatment rate equivalent to 10.0 ppm soil concentration. As an untreated control, an aliquot of water-acetone-DMF-emulsifier solution containing no test compound was applied in a similar manner. The soil surface and seeds were covered with moist soil. The pots were held in the greenhouse for the duration of the bioassay. Ten days after treatment, the corn seedling was clipped and placed in a plastic cup with 2 late second to early third instar black cutworm larvae. Mortality was assessed visually 4 days after infestation.

Test [2] relates to southern root-knot nematode (Meloidogyne incognita). The test is described as follows: Southern root-knot nematode (SRKN) soil test. The note with it: soil treatment 23 kg/ha; tomato or cotton root galling rated after 2-3 weeks. The procedure: (§2) For the tick, aphids, souther armyworm, tobacco budworm, house fly, Mexican bean beetle, American cockroach, cat flea, souther corn rootworm, western corn rootworm, black cutworm, and southern root-knot nematode, a solution or suspension was prepared by adding the test compound to a solution of dimethylformamide, acetone, emulsifiers which are alkylaryl polyether alcohols organic sulfonates, and water. The result was a 100 or 500 ppm concentration of the test compound.
For the southern root-knot nematode tests, the water-acetone-DMF-emulsifier solution was adjusted for a treatment rate of 23 kg/ha soil concentration.
Southern root-knot nematode (SRKN): Eggs and second stage juveniles (J2s) of southern root-knot nematodes were obtained from infected roots of reared tomato plants. Pots containing moist soil were treated with the test compound solution for a treatment rate of 23 kg/ha. As an untreated control, an aliquot of a water-acetone-DMF-emulsifier solution containing no test compound was applied in a similar manner. Immediately after treatment, eggs or J2s of southern root-knot nematode were added to the treated soil. For test with cotton, the seeds were placed on top of the soil the day of treatment and inoculation. For the tests with tomato, the seedlings were transplanted in the pot three days after treatment. The pots were kept in the greenhouse for 2-3 weeks. At the termination of the test, roots of the tomato or cotton seedlings were evaluated for galling on a rating scale from 1 to 5 with one equal to severe galling, relative to untreated control, and five to no galling, i.e., complete control.

In test [3] the test system is greenbug aphid (Schizaphis graminum). The test is described as follows: Greenbug aphid systemic test (GA-Sys). The note with it: soil drench 10 or 25 ppm, sorghum; aphid control rated one and three days after infestation. An excerpt: For the greenbug aphid systemic test, the water-acetone-DMF-emulsifier solution was adjusted for a treatment rate of 10 or 25 ppm soil concentration.
Greenburg aphid—systemic test (GA-Sys): Sorghum seeds were placed on top of the soil surface in pots containing moist soil. The test compound solution was applied as a drench to the top of the soil and seeds for a treatment rate equivalent to 10 or 25 ppm soil concentration. As an untreated control, an aliquot of a water-acetone-DMF-emulsifier solution containing no test compound was applied in a similar manner. The soil surface and seeds were covered with moist soil. The pots were held in the greenhouse for the duration of the bioassay. When the sorghum seeds germinated, greenbug aphids were sprinkled evenly over the sorghum pots to about 50 aphids per pot. The plants were rated for aphid control one and three days after infestation.

Test [4] deals with cotton aphid (Aphis gossypii). The test is described as follows: Cotton aphid (CA) foliar spray test. The settings on record: cotton plants wet to runoff, 100 or 500 ppm; dead aphids counted after three days. The procedure:
as §2
Buckthorn aphid (BA) or cotton aphid (CA): Adult and nymphal stages of buckthorn or cotton aphid were reared on potted dwarf nasturtium or cotton plants, respectively. Plants infested with 100-150 aphids were wet to runoff with the 100 or 500 ppm test compound formulation. As an untreated control, a water-acetone-DMF-emulsifier solution containing no test compound was also applied to runoff to infested plants. The treated plants were stored for one day for buckthorn aphid and three days for cotton aphid, after which the dead aphids were counted.

Test [5] deals with tobacco budworm (Heliothis virescens). The test is described as follows: Tobacco budworm (TBW) treated cotton leaf test. The settings on record: cotton leaves, 100 ppm; second instar larvae, five days. The procedure: as §2
Tobacco budworm (TBW): Cotton leaves were wet to runoff with the 100 ppm test compound formulation. As an untreated control, a water-acetone-DMF-emulsifier solution containing no test compound was also applied wet to runoff to cotton leaves. Ten randomly selected second instar tobacco budworm larvae were introduced into plastic containers in which moist dental wicks and the dry treated leaves had been placed. The cups were closed and held for five days. Larvae which were unable to move the length of the body, even upon stimulation by prodding, were considered dead.

The subject of test [6] is western corn rootworm (Diabrotica virgifera virgifera). The test is described as follows: Western corn rootworm (WCRW) soil test. The settings on record: soil concentration 0.15 or 0.5 ppm; neonate larvae, mortality six days after infestation. The procedure:
as §2
For the western corn rootworm test, the water-acetone-DMF-emulsifier solution was adjusted for a treatment rate of 0.15 or 0.5 ppm.
Western corn rootworm (WCRW): The 500 ppm test formulation was applied to dry sandy loam soil contained in a glass jar for a soil concentration of 0.15 or 0.5 ppm. As an untreated control, an aliquot of a water-acetone-DMF-emulsifier solution containing no test compound was applied in a similar manner. After incubating covered for 24 hours, the soil was mixed and four germinated corn seedlings were added to the jar. Ten neonate western corn rootworm larvae were placed in the jar. Six days after infestation, mortality was assessed by Berlese funnel extraction.

Test [7] concerns American cockroach (Periplaneta americana). Kind of test: American cockroach (ACR) treated food pellet test. The note with it: food pellets with 500 ppm formulation; nymphs, contact and feeding mortality 1 and 5 days after infestation. The procedure:
as §2
American cockroach (ACR): Cat food or dog food pellets were added to jars containing 1-2 mls of the 500 ppm test formulation. As an untreated control, an aliquot of a water-acetone-DMF-emulsifier solution containing no test compound was applied in a similar manner. After 48 hours, roach nymphs were added to the jar. Contact and feeding mortally was assessed 1 and 5 days after infestation.

Test [8] relates to southern corn rootworm (Diabrotica undecimpunctata howardi). The test is described as follows: Southern corn rootworm (SCRW) soil test. The settings on record: soil concentration 2.5, 5, 6.75 or 10 ppm; mortality eight days after infestation. The procedure:
as §2
For southern corn rootworm and black cutworm tests, the water-acetone-DMF-emulsifier solution was adjusted for a treatment rate of 2.5, 5, 6.75 or 10 ppm.
Southern corn rootworm (SCRW), Black cutworm (BCW): Corn seeds were placed in a glass jar and covered with dry sandy loam soil. The 500 ppm test formulation was applied for a soil concentration of 2.5, 5, 6.75 or 10 ppm. As an untreated control, an aliquot of a water-acetone-DMF-emulsifier solution containing no test compound was applied in a similar manner. After incubating covered for 24 hours, the soil was mixed and inoculated with approximately 25 southern corn rootworm eggs. Following an additional 48 hours, two late second to early third instar black cutworms were placed in the jar with a portion of insect diet. Eight days after infestation, mortality was assessed visually for cutworm and by Berlese funnel extraction for rootworm.

Test [9] has as its system southern armyworm (Spodoptera eridania). Kind of test: Southern armyworm (SAW) treated bean leaf test. The settings on record: bean leaves, 100 or 500 ppm; second instar larvae, five days. As for the experimental part:
as §2
(§3) Southern armyworm (SAW), Mexican bean beetle (MBB): Bean leaves were wet to runoff with the 100 or 500 ppm test compound formulation. As an untreated control, a water-acetone-DMF-emulsifier solution containing no test compound was also applied wet to runoff to bean leaves. Five or six randomly selected second instar southern armyworn larvae or Mexican bean bettle larvae were introduced into each plastic container with the dry treated leaves. The container was closed and held for five days. Larvae which were unable to move the length of the body, even upon stimulation by prodding, were considered dead.

Test [10] concerns house fly (Musca domestica). The test is described as follows: House fly (HF) bait test. The note with it: sucrose bait, 100 or 250 ppm; adult flies, mortality after 24 hours. As for the experimental part:
as §2
For house fly tests, the water-acetone-DMF-emulsifier solution was adjusted with a 20% by weight aqueous solution of sucrose to provide a final 100 or 250 ppm concentration of the test compound.
House fly (HF): Four to six day old adult house flies were used. The files were immobilized by anesthetizing with carbon dioxide. A bait cup was prepared which contained the 100 or 250 ppm test compound formulation/sucrose solution and one or two absorbent cotton pad(s). As an untreated control, a water-acetone-DMF-emulsifier-sucrose solution containing no test compound was applied in a similar manner. The bait cup was introduced inside the cage prior to admitting 12-25 anesthetized flies. Mortality was assessed after 24 hours.

Test [11] deals with cotton aphid (Aphis gossypii). The test is described as follows: Cotton aphid systemic test (CA-Sys). The note with it: soil drench 10.0 ppm, aphid control rated three and six days after infestation.
Description: as §1
Cotton aphid—systemic test (CA-Sys): Cotton seeds were placed on top of the soil surface in pots containing moist soil. The test compound solution was applied as a drench to the top of the soil and seeds for a treatment rate equivalent to 10.0 ppm soil concentration. As an untreated control, an aliquot of a water-acetone-DMF-emulsifier solution containing no test compound was applied in a similar manner. The soil surface and seeds were covered with moist soil. The pots were held in the greenhouse for the duration of the bioassay. When the cotyledons of the cotton were expanded (approximately 7 days after planting), the cotton was infested with approximately 25 cotton aphids (mixed population). The plant were rated for aphid control three and six days after infestation.

Test [12] deals with Mexican bean beetle (Epilachna varivestis). Kind of test: Mexican bean beetle (MBB) treated bean leaf test. The settings on record: bean leaves, 100 or 500 ppm; second instar larvae, five days. As for the experimental part:
as §2, §3

Regarding `CC(O)c1c(SC(F)(F)F)c(C#N)nn1-c1c(Cl)cc(C(F)(F)F)cc1Cl` (centres unmarked) [Compound 8, 3-Cyano-1-(2,6-dichloro-4-trifluoromethylphenyl)-5-(1-hydroxy)ethyl-4-trifluoromethylthiopyrazole], the BCW-Sys result in test [1] is “+ (active against 1 or more insects described above up to 100% mortality. This activity is indicated by a “+”)”.

For the molecule `N#Cc1nn(-c2c(Cl)cc(C(F)(F)F)cc2Cl)c(CO)c1[S+]([O-])C(F)(F)F` (centres unmarked) [Compound 12, 3-Cyano-1-(2,6-dichloro-4-trifluoromethylphenyl)-5-(hydroxy)methyl-4-trifluoromethylsulfinylpyrazole], the BCW-Sys result in [1] is “+ (active against 1 or more insects described above up to 100% mortality. This activity is indicated by a “+”)”. Moreover, the SRKN result in test [2] is on record as “+ (active against 1 or more insects described above up to 100% mortality. This activity is indicated by a “+”)”. The GA-Sys entry in [3] is “+ (active against 1 or more insects described above up to 100% mortality. This activity is indicated by a “+”)”.

Turning to `COC(C#N)c1c([S+]([O-])C(F)(F)F)c(C#N)nn1-c1c(Cl)cc(C(F)(F)F)cc1Cl` (centres unmarked) [Compound 14, 3-Cyano-5-{(1-cyano-1-methoxy)methyl}-1-(2,6-dichloro-4-trifluoromethylphenyl)-4-trifluoromethylsulfinylpyrazole], in test [4], the CA entry is “+ (active against 1 or more insects described above up to 100% mortality. This activity is indicated by a “+”)”. The SRKN entry in test [2] is listed as “+ (active against 1 or more insects described above up to 100% mortality. This activity is indicated by a “+”)”. Further, the TBW result in test [5] is “+ (active against 1 or more insects described above up to 100% mortality. This activity is indicated by a “+”)”. Moreover, the WCRW result in [6] is listed as “+ (active against 1 or more insects described above up to 100% mortality. This activity is indicated by a “+”)”. In addition, the ACR entry in test [7] is “+ (active against 1 or more insects described above up to 100% mortality. This activity is indicated by a “+”)”. Also, the SCRW result in test [8] is given as “+ (active against 1 or more insects described above up to 100% mortality. This activity is indicated by a “+”)”. Moreover, the SAW result in test [9] is recorded as “+ (active against 1 or more insects described above up to 100% mortality. This activity is indicated by a “+”)”. In addition, the HF result in test [10] is given as “+ (active against 1 or more insects described above up to 100% mortality. This activity is indicated by a “+”)”.

In the case of `N#Cc1nn(-c2c(Cl)cc(C(F)(F)F)cc2Cl)c(C(O)C(F)(F)F)c1SC(F)(F)F` (centres unmarked) [Compound 17, 3-Cyano-1-(2,6-dichloro-4-trifluoromethylphenyl)-5-(1-hydroxy-2,2,2-trifluoroethyl)-4-trifluoromethylthiopyrazole], in test [11], the CA-Sys entry is listed as “+ (active against 1 or more insects described above up to 100% mortality. This activity is indicated by a “+”)”. In test [6], the WCRW entry is on record as “+ (active against 1 or more insects described above up to 100% mortality. This activity is indicated by a “+”)”. Also, the ACR result in [7] is reported as “+ (active against 1 or more insects described above up to 100% mortality. This activity is indicated by a “+”)”.

`C=C(OC(C)=O)c1c(S(=O)(=O)C(F)(F)F)c(C#N)nn1-c1c(Cl)cc(C(F)(F)F)cc1Cl` [Compound 21, 3-Cyano-1-(2,6-dichloro-4-trifluoromethylphenyl)-5-(1-acetoxyethenyl)-4-trifluoromethylsulfonylpyrazole]: the CA entry in test [4] is “+ (active against 1 or more insects described above up to 100% mortality. This activity is indicated by a “+”)”. Moreover, the TBW result in test [5] is reported as “+ (active against 1 or more insects described above up to 100% mortality. This activity is indicated by a “+”)”. For the same molecule, in [6], the WCRW entry is “+ (active against 1 or more insects described above up to 100% mortality. This activity is indicated by a “+”)”. Further, the MBB result in [12] was “+ (active against 1 or more insects described above up to 100% mortality. This activity is indicated by a “+”)”. The GA-Sys result in test [3] was “+ (active against 1 or more insects described above up to 100% mortality. This activity is indicated by a “+”)”.
